Columns and labels:
Format in all cases: in vivo
[1] = test system: canarygrass (Phalaris minor); test: Test C postemergence: canarygrass
How it was run: (§1)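 Response values are visual ratings, 0 (no effect) to 100 (complete control), made by comparison with untreated controls 13 to 15 days after postemergence treatment of greenhouse-grown potted plants that were 2 to 18 cm high at spraying.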

[2] = test system: common (oilseed) sunflower (Helianthus annuus); test: Test C pre-/postemergence: sunflower; conditions: Preemergence
How it was run: (§2)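 Visual injury scored 0–100 (100 = complete control) against untreated controls after 13–15 greenhouse days. Surfactant-containing solvent formulations applied either to soil after sowing (loam/sand) or over 1- to 4-leaf plants, 2–18 cm tall.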

[3] = test system: surinam grass (Brachiaria decumbens); test: Test C pre-/postemergence: surinam grass
How it was run: as §2

[4] = test system: cocklebur (common cocklebur, Xanthium strumarium); test: Test C pre-/postemergence: cocklebur
How it was run: as §2

[5] = test system: woolly cupgrass (Eriochloa villosa); test: Test C pre-/postemergence: woolly cupgrass
How it was run: as §2

[6] = test system: bermudagrass (Cynodon dactylon); test: Test C pre-/postemergence: bermudagrass
How it was run: as §2

[7] = test system: barley (winter barley, Hordeum vulgare); test: Test C postemergence: barley
How it was run: as §1

[8] = test system: windgrass (Apera spica-venti); test: Test C postemergence: windgrass
How it was run: as §1

[9] = test system: goosegrass (Eleusine indica); test: Test C pre-/postemergence: goosegrass
How it was run: as §2

[10] = test system: foxtail, green (green foxtail, Setaria viridis); test: Test C pre-/postemergence: foxtail, green
How it was run: as §2

[11] = 31 g ai/ha, scale 0 to 100 (0 no effect, 100 complete control)
[12] = 62 g ai/ha, scale 0 to 100 (0 no effect, 100 complete control)
[13] = 125 g ai/ha, scale 0 to 100, 0 no effect, 100 complete control
[14] = 62 g ai/ha, scale of 0 to 100, 0 is no effect, 100 is complete control
[15] = 250 g ai/ha, scale 0 to 100, 0 no effect, 100 complete control
[16] = Postemergence, 31 g ai/ha, scale 0 to 100 (0 no effect, 100 complete control)
[17] = Postemergence, 62 g ai/ha, scale 0 to 100 (0 no effect, 100 complete control)
[18] = Postemergence, 125 g ai/ha, scale 0 to 100, 0 no effect, 100 complete control
[19] = Postemergence, 250 g ai/ha, scale 0 to 100
[20] = Preemergence, 31 g ai/ha, scale of 0 to 100, 0 is no effect, 100 is complete control
[21] = Preemergence, 62 g ai/ha, scale of 0 to 100, 0 is no effect, 100 is complete control
[22] = Preemergence, 125 g ai/ha, scale 0 to 100, 0 no effect, 100 complete control
[23] = Preemergence, 250 g ai/ha, scale 0 to 100, 0 no effect, 100 complete control

Cc1nn(-c2ccc(C(F)(F)F)cn2)nc1Cc1cccc(C(F)(F)F)c1 [Compound 106]
Plant response rating, Canarygrass [1, 11]: 35 | Plant response rating, Canarygrass [1, 12]: 50 | Plant response rating, Canarygrass [1, 13]: 70 | Plant response rating, Canarygrass ([1]; 250 g ai/ha, scale 0 to 100): 80 | Plant response rating, Sunflower [2, 14]: 0 | Plant response rating, Sunflower [2, 13]: 0 | Plant response rating, Sunflower [2, 15]: 0 | Plant response rating, Surinam Grass [3, 16]: 20 | Plant response rating, Surinam Grass [3, 17]: 25 | Plant response rating, Surinam Grass [3, 18]: 35 | Plant response rating, Surinam Grass [3, 19]: 40 | Plant response rating, Surinam Grass [3, 20]: 5 | Plant response rating, Surinam Grass [3, 21]: 20 | Plant response rating, Surinam Grass [3, 22]: 80 | Plant response rating, Surinam Grass [3, 23]: 90 | Plant response rating, Cocklebur [4, 16]: 35 | Plant response rating, Cocklebur [4, 17]: 35 | Plant response rating, Cocklebur [4, 18]: 40 | Plant response rating, Cocklebur [4, 19]: 55 | Plant response rating, Cupgrass, Woolly [5, 16]: 5 | Plant response rating, Cupgrass, Woolly [5, 17]: 45 | Plant response rating, Cupgrass, Woolly [5, 18]: 45 | Plant response rating, Cupgrass, Woolly [5, 19]: 50 | Plant response rating, Cupgrass, Woolly [5, 20]: 5 | Plant response rating, Cupgrass, Woolly [5, 21]: 60 | Plant response rating, Cupgrass, Woolly [5, 22]: 80 | Plant response rating, Cupgrass, Woolly [5, 23]: 90 | Plant response rating, Bermudagrass [6, 16]: 40 | Plant response rating, Bermudagrass [6, 17]: 40 | Plant response rating, Bermudagrass [6, 18]: 55 | Plant response rating, Bermudagrass [6, 19]: 80 | Plant response rating, Bermudagrass [6, 20]: 100 | Plant response rating, Bermudagrass ([6]; Preemergence, 62 g ai/ha, scale 0 to 100, 0 no effect, 100 complete control): 100 | Plant response rating, Bermudagrass [6, 22]: 100 | Plant response rating, Bermudagrass [6, 23]: 100 | Plant response rating, Barley [7, 11]: 15 | Plant response rating, Barley [7, 12]: 25 | Plant response rating, Barley [7, 13]: 35 | Plant response rating, Barley ([7]; 250 g ai/ha, scale 0 to 100): 40 | Plant response rating, Windgrass [8, 11]: 50 | Plant response rating, Windgrass [8, 12]: 65 | Plant response rating, Windgrass [8, 13]: 80 | Plant response rating, Windgrass ([8]; 250 g ai/ha, scale 0 to 100): 85 | Plant response rating, Goosegrass [9, 16]: 10 | Plant response rating, Goosegrass [9, 17]: 35 | Plant response rating, Goosegrass [9, 18]: 45 | Plant response rating, Goosegrass [9, 19]: 55 | Plant response rating, Goosegrass [9, 20]: 80 | Plant response rating, Goosegrass [9, 21]: 98 | Plant response rating, Goosegrass [9, 22]: 98 | Plant response rating, Goosegrass [9, 23]: 100 | Plant response rating, Foxtail, Green [10, 16]: 50 | Plant response rating, Foxtail, Green [10, 17]: 50 | Plant response rating, Foxtail, Green [10, 18]: 70 | Plant response rating, Foxtail, Green [10, 19]: 85 | Plant response rating, Foxtail, Green [10, 20]: 90 | Plant response rating, Foxtail, Green [10, 21]: 95 | Plant response rating, Foxtail, Green [10, 22]: 95 | Plant response rating, Foxtail, Green [10, 23]: 95

COc1nn(-c2ccc(C(F)(F)F)cc2)nc1Cc1ccnc(C(F)F)c1 [Compound 138]
Plant response rating, Canarygrass [1, 11]: 30 | Plant response rating, Canarygrass [1, 12]: 55 | Plant response rating, Canarygrass [1, 13]: 70 | Plant response rating, Canarygrass ([1]; 250 g ai/ha, scale 0 to 100): 90 | Plant response rating, Sunflower ([2]; 31 g ai/ha, scale of 0 to 100, 0 is no effect, 100 is complete control): 5 | Plant response rating, Sunflower [2, 14]: 10 | Plant response rating, Sunflower [2, 13]: 30 | Plant response rating, Sunflower [2, 15]: 30 | Plant response rating, Surinam Grass [3, 16]: 45 | Plant response rating, Surinam Grass [3, 17]: 50 | Plant response rating, Surinam Grass [3, 18]: 65 | Plant response rating, Surinam Grass [3, 20]: 55 | Plant response rating, Surinam Grass [3, 21]: 80 | Plant response rating, Surinam Grass [3, 22]: 85 | Plant response rating, Surinam Grass [3, 23]: 100 | Plant response rating, Cocklebur [4, 16]: 65 | Plant response rating, Cocklebur [4, 17]: 70 | Plant response rating, Cocklebur [4, 18]: 85 | Plant response rating, Cocklebur [4, 19]: 85 | Plant response rating, Cocklebur [4, 20]: 5 | Plant response rating, Cocklebur [4, 21]: 5 | Plant response rating, Cocklebur [4, 22]: 15 | Plant response rating, Cocklebur [4, 23]: 15 | Plant response rating, Cupgrass, Woolly [5, 16]: 50 | Plant response rating, Cupgrass, Woolly [5, 17]: 55 | Plant response rating, Cupgrass, Woolly [5, 18]: 55 | Plant response rating, Cupgrass, Woolly [5, 19]: 85 | Plant response rating, Cupgrass, Woolly [5, 20]: 60 | Plant response rating, Cupgrass, Woolly [5, 21]: 90 | Plant response rating, Cupgrass, Woolly [5, 22]: 95 | Plant response rating, Cupgrass, Woolly [5, 23]: 100 | Plant response rating, Bermudagrass [6, 16]: 20 | Plant response rating, Bermudagrass [6, 17]: 45 | Plant response rating, Bermudagrass [6, 18]: 75 | Plant response rating, Bermudagrass [6, 19]: 95 | Plant response rating, Bermudagrass [6, 20]: 100 | Plant response rating, Bermudagrass [6, 21]: 100 | Plant response rating, Bermudagrass [6, 22]: 100 | Plant response rating, Bermudagrass [6, 23]: 100 | Plant response rating, Barley [7, 11]: 10 | Plant response rating, Barley [7, 12]: 30 | Plant response rating, Barley [7, 13]: 35 | Plant response rating, Barley ([7]; 250 g ai/ha, scale 0 to 100): 60 | Plant response rating, Windgrass [8, 11]: 50 | Plant response rating, Windgrass [8, 12]: 50 | Plant response rating, Windgrass [8, 13]: 55 | Plant response rating, Windgrass ([8]; 250 g ai/ha, scale 0 to 100): 80 | Plant response rating, Goosegrass [9, 16]: 5 | Plant response rating, Goosegrass [9, 17]: 25 | Plant response rating, Goosegrass [9, 18]: 50 | Plant response rating, Goosegrass [9, 19]: 80 | Plant response rating, Goosegrass [9, 20]: 100 | Plant response rating, Goosegrass [9, 21]: 100 | Plant response rating, Goosegrass [9, 22]: 100 | Plant response rating, Goosegrass [9, 23]: 100 | Plant response rating, Foxtail, Green [10, 16]: 35 | Plant response rating, Foxtail, Green [10, 17]: 85 | Plant response rating, Foxtail, Green [10, 18]: 90 | Plant response rating, Foxtail, Green [10, 19]: 90 | Plant response rating, Foxtail, Green [10, 20]: 90 | Plant response rating, Foxtail, Green [10, 21]: 95 | Plant response rating, Foxtail, Green [10, 22]: 95 | Plant response rating, Foxtail, Green [10, 23]: 95

Source: patent publication US9302999B2, “Substituted triazoles as herbicides” (E. I. DU PONT DE NEMOURS AND COMPANY, priority 2012, dated 2016)
